This note sets out measurements from the supplement of paper PMC10307832.

Common to all, as to experiment: relative viability (nuclei count vs DMSO), 5 days (fraction); higher = more cells survive
Compound in the assay “Motesanib + Linsitinib”: CC1(C)CNc2cc(NC(=O)c3cccnc3NCc3ccncc3)ccc21 [Motesanib] + C[C@]1(O)C[C@@H](c2nc(-c3ccc4ccc(-c5ccccc5)nc4c3)c3c(N)nccn32)C1 [Linsitinib] (partner 1 µM)
An outline of the steps: (§1)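 Each reported value is a median over duplicate plates. It expresses relative viability: treated-well nuclei count divided by vehicle-well nuclei count. Lung cancer cell lines in 1536-well plates were dosed by pin tool a day after seeding, alone with one drug or with a fixed anchor-drug dose plus five library-drug doses (not always all listed) in √10 steps, and nuclei were counted after 5 days.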

Compound in the assay “Motesanib + Olaparib”: CC1(C)CNc2cc(NC(=O)c3cccnc3NCc3ccncc3)ccc21 [Motesanib] + O=C(c1cc(Cc2n[nH]c(=O)c3ccccc23)ccc1F)N1CCN(C(=O)C2CC2)CC1 [Olaparib] (partner 8 µM)
An outline of the steps: as §1

Compound in assay [1]: C[C@@]1(C(=O)Nc2ccc(F)nc2)CCCN1c1nc(Nc2cc(C3CC3)n[nH]2)c2cccn2n1 + CC(=O)Nc1cccc(-n2c(=O)n(C3CC3)c(=O)c3c(Nc4ccc(I)cc4F)n(C)c(=O)c(C)c32)c1 [Trametinib] (partner 0.02 µM)
Put shortly:
as §1

Compound in assay [2]: C[C@@]1(C(=O)Nc2ccc(F)nc2)CCCN1c1nc(Nc2cc(C3CC3)n[nH]2)c2cccn2n1 + N=C(N)NC(=N)NCCc1ccccc1 [Phenformin] (partner 250 µM)
Put shortly:
as §1

On to UMC-11, for which the relative viability is 0.984 with Motesanib + Linsitinib (first compound 0.01 µM); 0.985 with Motesanib + Linsitinib (first compound 0.03162 µM); 1.04 with Motesanib + Linsitinib (first compound 0.1 µM); 1 with Motesanib + Linsitinib (first compound 0.3162 µM); 1.13 in the assay with Motesanib + Linsitinib (first compound 1 µM); 0.395 with Motesanib + Olaparib (first compound 0.01 µM). Moreover, the relative viability with Motesanib + Olaparib (first compound 0.03162 µM) worked out at 0.356; with Motesanib + Olaparib (first compound 0.1 µM) it was 0.367; in the assay with Motesanib + Olaparib (first compound 0.3162 µM), 0.378; with Motesanib + Olaparib (first compound 1 µM), 0.34; in assay [1] (first compound 0.04 µM) it was 0.703; in assay [1] (first compound 0.1265 µM) it was 0.671. Moreover, the relative viability turned out to be 0.651 in assay [1] (first compound 0.4 µM); 0.648 in assay [1] (first compound 1.265 µM); 0.341 in assay [2] (first compound 0.04 µM); 0.339 in assay [2] (first compound 0.1265 µM); 0.347 in assay [2] (first compound 0.4 µM); 0.277 in assay [2] (first compound 1.265 µM).
